Results reported in paper PMC13155568, “A plant-specific cytochrome b5–like protein is essential for phytosterol biosynthesis” (Science Advances, 2025).

Biological target: T1, CBR1 (Arabidopsis thaliana, UniProt Q9ZNT1)
T1 sequence (Q9ZNT1 1-281): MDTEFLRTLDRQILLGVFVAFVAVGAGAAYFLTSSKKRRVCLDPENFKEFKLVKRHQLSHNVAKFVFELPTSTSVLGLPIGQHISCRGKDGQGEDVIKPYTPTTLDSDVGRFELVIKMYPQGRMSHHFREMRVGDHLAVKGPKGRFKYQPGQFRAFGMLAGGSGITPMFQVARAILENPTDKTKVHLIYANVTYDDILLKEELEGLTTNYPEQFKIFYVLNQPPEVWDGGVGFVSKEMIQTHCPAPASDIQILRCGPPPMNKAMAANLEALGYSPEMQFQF
T1 sequence (O22704 22-121 partner limits assumed): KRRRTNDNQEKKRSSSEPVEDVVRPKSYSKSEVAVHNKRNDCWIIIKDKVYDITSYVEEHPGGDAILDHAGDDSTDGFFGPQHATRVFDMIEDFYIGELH
Assay: reduction of recombinant CB5LP followed by Soret shift
Assay type: biochemical
Details: 100 uM NADH, 9 uM CB5LP as electron acceptor, Tris-HCl pH 7.5, room temperature

Compound: NC(=O)C1=CN([C@@H]2O[C@H](COP(=O)(O)OP(=O)(O)OC[C@H]3O[C@@H](n4cnc5c(N)ncnc54)[C@H](O)[C@@H]3O)[C@@H](O)[C@H]2O)C=CC1 [NADH]
- reduction of recombinant CB5LP followed by Soret shift: CB5LP was effectively reduced by CBR1 in the presence of NADH
